Converted amounts (≈) assume the structure as drawn.

A short description of data set [1]: Solubility of amine monomers of Formula I in water. The format is physicochemical. An excerpt: The insolubility point was reached when a distinct two separate layers was observed.
For data set [2] the following is noted: Material Safety Data Sheet from Arkema Inc for Norsocryl; cited from earlier work.
Where [3] appears, read: 0.1 g amine monomer/100 g deionised water.
Where [4] appears, read: 0.2 g amine monomer/100 g deionised water.
The mark [5] stands for this setting: 0.3 g amine monomer/100 g deionised water.
Where [6] appears, read: 0.4 g amine monomer/100 g deionised water.
The mark [7] stands for this setting: 0.5 g amine monomer/100 g deionised water.
The mark [8] stands for this setting: 1.0 g amine monomer/100 g deionised water.
The mark [9] stands for this setting: 1.5 g amine monomer/100 g deionised water.
Where [10] appears, read: 2.0 g amine monomer/100 g deionised water.
Setting [11] is: 2.5 g amine monomer/100 g deionised water.
[12] abbreviates: 5.0 g amine monomer/100 g deionised water.
Where [13] appears, read: 7.5 g amine monomer/100 g deionised water.
Where [14] appears, read: 10.0 g amine monomer/100 g deionised water.
The mark [15] stands for this setting: 12.5 g amine monomer/100 g deionised water.
Where [16] appears, read: 15.0 g amine monomer/100 g deionised water.

Turning to `C=C(C)C(=O)OCC[N+](C)(CC)CC.COS(=O)(=O)[O-]` [DEAEMA Quat DMS, Diethylaminoethyl methacrylate dimethyl sulphate quaternary ammonium form], in data set [1] (quaternized monomer), the solubility in water result is reported as “completely water soluble”.

With `C=C(C)C(=O)OCCN(CC)CC` [DEAEMA, diethylaminoethyl methacrylate], the solubility in water result in data set [1] (setting [3]) was “soluble”; in data set [1] (setting [4]) it was “insoluble”; in data set [1] (setting [5]), “insoluble”; in data set [1] (setting [6]), “insoluble”; in data set [1] (setting [7]), “insoluble”; in data set [1] (setting [8]) it was “insoluble”. Also, the solubility in water result in data set [1] (setting [9]), in data set [1] (setting [10]), in data set [1] (setting [11]), in data set [1] (setting [12]), in data set [1] (setting [13]) and in data set [1] (setting [14]) was “insoluble” in each case. The solubility in water result in data set [1] (setting [15]) and in data set [1] (setting [16]) was “insoluble” each time.

For the molecule `C=C(C)C(=O)OCCN(C(C)C)C(C)C` [DPAEMA, Diisopropylaminoethyl methacrylate], the solubility in water entry in data set [1] (setting [3]) was “soluble”; in data set [1] (setting [4]), “insoluble”; in data set [1] (setting [5]), “insoluble”; in data set [1] (setting [6]), “insoluble”; in data set [1] (setting [7]), “insoluble”; in data set [1] (setting [8]), “insoluble”. The solubility in water entry in data set [1] (setting [9]), in data set [1] (setting [10]), in data set [1] (setting [11]), in data set [1] (setting [12]), in data set [1] (setting [13]) and in data set [1] (setting [14]) was “insoluble” each time. Besides, the solubility in water entry in data set [1] (setting [15]) and in data set [1] (setting [16]) was “insoluble” throughout.

Take `C=C(C)C(=O)OCCNC(C)(C)C` [TBAEMA, tertiary-butylaminoethyl methacrylate]: the solubility in water entry in data set [1] (setting [3]), in data set [1] (setting [4]), in data set [1] (setting [5]), in data set [1] (setting [6]), in data set [1] (setting [7]) and in data set [1] (setting [8]) was “soluble” each time. The solubility in water result is recorded as “soluble” in data set [1] (setting [9]); “insoluble” in data set [1] (setting [10]); “insoluble” in data set [1] (setting [11]); “insoluble” in data set [1] (setting [12]); “insoluble” in data set [1] (setting [13]); “insoluble” in data set [1] (setting [14]). Also, the solubility in water entry is “insoluble” in data set [1] (setting [15]), “insoluble” in data set [1] (setting [16]) and “less than 2 g/100 g water” in data set [1] (estimated from Table 2). Further, the “solubility in water, published literature value” in data set [2] was 18 mg/mL (≈ 97.2 mM).

(Values after patent US11717471B2, “Hydrogel microcapsules” (ISP Investments LLC, priority 2010, dated 2023).)
